According to patent publication US12435060B2, “Acylamino bridged heterocyclic compound, and composition and application thereof” (BEIJING SCITECH-MQ PHARMACEUTICALS LIMITED, priority 2019, dated 2025):

The compounds below were run on HT29 cells (assay: Inhibition of cell necrosis (CCK8 method), induced programmed necrosis of HT29 cells). Settings: Homo sapiens, HT-29; rescue from necrosis induced by TNF-α 20 ng/mL, AT-406 1 μM, Z-VAD-FMK 20 μM; 16-20 hours; CCK-8, OD 450 nm.
Type: cell-based
Procedure, shortened: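 Rescue from programmed necrosis was scored by CCK-8 absorbance at 450 nm after 16-20 h of TNF-α (20 ng/mL), AT-406 (1 μM) and Z-VAD-FMK (20 μM) at 37 °C, 5% CO2. HT29 cells had received compound 30 min earlier across nine 4-fold dilutions (top 25000 nM final). IC50 came from % inhibition relative to uninduced and induced-only wells.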
Compound `CC(C)(O)CCCCOc1ccc(Cl)c(-c2cc(NC(=O)c3nnc(Cc4ccccc4F)[nH]3)ncc2F)c1` [Example 419, N-(4-(2-chloro-5-((5-hydroxyl-5-methylhexyl)oxy)phenyl)-5-fluoropyridin-2-yl)-5-(2-fluorobenzyl)-4H-1,2,4-triazole-3-carboxamide] has an IC50 of at most 100 nM. With `CC(C)(O)CCCCOc1ccc(Cl)c(-c2cc(NC(=O)c3nnc(Cc4ccccc4F)[nH]3)ncc2Cl)c1` [Example 420, N-(5-chloro-4-(2-chloro-5-((5-hydroxyl-5-methylhexyl)oxy)phenyl)pyridin-2-yl)-5-(2-fluorobenzyl)-4H-1,2,4-triazole-3-carboxamide] the IC50 was 100 to 1000 nM. In the case of `CC(C)(O)CCCCOc1ccc(Cl)c(-c2cc(NC(=O)c3nnc(CC4CCCCC4)[nH]3)ncc2Cl)c1` [Example 421, N-(5-chloro-4-(2-chloro-5-((5-hydroxyl-5-methylhexyl)oxy)phenyl)pyridin-2-yl)-5-(cyclohexylmethyl)-4H-1,2,4-triazole-3-carboxamide], the IC50 is reported as 100 to 1000 nM. `O=C(Nc1cc(-c2cc(OCC3CCOCC3)ccc2Cl)c(F)cn1)c1nnc(Cc2ccccc2F)[nH]1` [Example 422, N-(4-(2-chloro-5-((tetrahydro-2H-pyran-4-yl)methoxy)phenyl)-5-fluoropyridin-2-yl)-5-(2-fluorobenzyl)-4H-1,2,4-triazole-3-carboxamide] showed an IC50 of at most 100 nM. Compound `O=C(Nc1cc(-c2cc(OCC3CCOCC3)ccc2Cl)c(F)cn1)c1nnc(CC2CCCCC2)[nH]1` [Example 423, N-(4-(2-chloro-5-((tetrahydro-2H-pyran-4-yl)methoxy)phenyl)-5-fluoropyridin-2-yl)-5-(cyclohexylmethyl)-4H-1,2,4-triazole-3-carboxamide] has an IC50 of at most 100 nM. With `O=C(Nc1cc(-c2cc(OCC3CCOCC3)ccc2Cl)c(Cl)cn1)c1nnc(Cc2ccccc2F)[nH]1` [Example 424, N-(5-chloro-4-(2-chloro-5-((tetrahydro-2H-pyran-4-yl)methoxy)phenyl)pyridin-2-yl)-5-(2-fluorobenzyl)-4H-1,2,4-triazole-3-carboxamide] the IC50 was 100 to 1000 nM. In the case of `O=C(Nc1cc(-c2cc(OCC3CCOCC3)ccc2Cl)c(Cl)cn1)c1nnc(CC2CCCCC2)[nH]1` [Example 425, N-(5-chloro-4-(2-chloro-5-((tetrahydro-2H-pyran-4-yl)methoxy)phenyl)pyridin-2-yl)-5-(cyclohexylmethyl)-4H-1,2,4-triazole-3-carboxamide], the IC50 is reported as 100 to 1000 nM. `Cc1cnc(NC(=O)c2nnc(Cc3ccccc3F)[nH]2)cc1-c1cc(OCC2CCOCC2)ccc1Cl` [Example 426, N-(4-(2-chloro-5-((tetrahydro-2H-pyran-4-yl)methoxy)phenyl)-5-methylpyridin-2-yl)-5-(2-fluorobenzyl)-4H-1,2,4-triazole-3-carboxamide] gave an IC50 of 100 to 1000 nM. Compound `Cc1cnc(NC(=O)c2nnc(CC3CCCCC3)[nH]2)cc1-c1cc(OCC2CCOCC2)ccc1Cl` [Example 427, N-(4-(2-chloro-5-((tetrahydro-2H-pyran-4-yl)methoxy)phenyl)-5-methylpyridin-2-yl)-5-(cyclohexylmethyl)-4H-1,2,4-triazole-3-carboxamide] has an IC50 of 100 to 1000 nM. Work on `O=C(Nc1cc(-c2cc(OCCC3CCOCC3)ccc2Cl)c(F)cn1)c1nnc(Cc2ccccc2F)[nH]1` [Example 428, N-(4-(2-chloro-5-(2-(tetrahydro-2H-pyran-4-yl)ethoxy)phenyl)-5-fluoropyridin-2-yl)-5-(2-fluorobenzyl)-4H-1,2,4-triazole-3-carboxamide] yielded an IC50 of at most 100 nM. With `O=C(Nc1cc(-c2cc(OCCC3CCOCC3)ccc2Cl)c(F)cn1)c1nnc(CC2CCCCC2)[nH]1` [Example 429, N-(4-(2-chloro-5-(2-(tetrahydro-2H-pyran-4-yl)ethoxy)phenyl)-5-fluoropyridin-2-yl)-5-(cyclohexylmethyl)-4H-1,2,4-triazole-3-carboxamide] the IC50 was at most 100 nM.
